Measured values from patent US6906179B2, “Antibody to SNIP1” (The General Hospital Corporation, priority 1999, dated 2005).
Like-named read-outs stand apart in the source and are kept apart here. *1 amine or outer side, *2 acyl side, *3 side chain or, on linkers, in order; H or OH if unused. Where a SMILES comes first, the peptide text is derived from it. Bridges are numbered along the chain shown (N, C = ends). Roman numbers before positions name the chains, in order. [ ]: non-standard residue; d: D form. Actinocin(9to1) = Cc1c2oc3c(C)ccc(C(=O)[*:1])c3nc-2c(C(=O)[*:2])c(N)c1=O; NMeV = CN[C@H](C(=O)O)C(C)C; Sar = CNCC(=O)O

Tests used:
[1] = test system: endogenous HEF1; test: TGF-β regulation of endogenous HEF1 in H9 cells, Western blot and pulse chase; type: cell-based, human
Method: The ability of TGF-β to regulate the protein level of endogenous HEF1 in TGF-β responsive cells was tested. The human T lymphoblastoid H9 cells were either not exposed to TGF-β or pre-treated with TGF-β for different time periods. Cells were then harvested at the same time and HEF1 protein level was determined by Western blot using anti-HEF1 antibody. […] The predominant form of HEF1 labeled within the 30 min pulse period is p105HEF1. The pulse-labeled p105HEF1 was reduced to basal level within 60 min in TGF-β-stimulated cells but took more than 120 min in the absence of TGF-β. Thus, TGF-β can enhance HEF1 degradation in native H9 cells.

[2] = test system: endogenous HEF1; test: TGF-β regulation of endogenous HEF1 in A549 lung carcinoma cells; type: cell-based
Method: In A549 lung carcinoma cells, which predominantly express p115HEF1, a decrease of endogenous p115HEF1 was detected after 15 min exposure to TGF-β. Furthermore, LLnL was able to block the TGF-β induced decrease of endogenous HEF1, indicating the involvement of the proteasome in this event. The change of p105HEF1 in response to TGF-β was also observed, but not as apparent as p115HEF1 due to the very low level of p105HEF1 in this cell line. It was noted that the steady-state level of both p115HEF1 and p105HEF1 increased after 3 hrs of TGF-β stimulation. […] To directly test this, we performed a time-course Northern blot on HEF1 mRNA isolated from A549 cells treated with TGF-β for different time periods. […] Thus, TGF-β down-regulates HEF1 protein level via proteasomal degradation and also induces HEF1 mRNA level via transcriptional activation, which may serve as a negative feedback mechanism to restore HEF1 protein level.

[3] = test system: HEF1 mRNA; test: Induction of HEF1 mRNA in HaCaT cells; type: cell-based
[4] = test system: rat sympathetic neurons; test: OP-1 induced dendritic growth of rat sympathetic neurons; type: cell-based; details: for inhibition of OP-1 induced dendritic growth: reversible peptidyl aldehyde inhibitors
Method: If Smad1 and DPC4 signal through proteasome mediated proteolysis, proteasome inhibitors should block the signaling of BMPs. We thus directly tested the effects of the proteasome inhibitors on the signaling pathways of BMPs that signal via Smad1 activation. […] The EC50 for the inhibitory activity of lactacystin was ˜100 nM and maximal effects were obtained with 4-6 hour pretreatments (not shown).
To determine the time course of sensitivity to lactacystin with respect to the signaling pathway of OP-1, lactacystin was added to the media at various time points after the addition of OP-1 (FIG. 32, bottom panel B).

[5] = test system: HEF1 protein level; test: Smad3-induced proteasomal degradation of HEF1 in 293 cells; type: cell-based; details: for Smad3-induced reduction (degradation) of HEF1 protein level: 293 cells, presence or absence of type I receptors
Source text: Two different forms of HEF1, p115HEF1 and p105HEF1, have been previously reported to be derived from differential phosphorylation (Law et al., 1996, Mol. Cell. Boil. 16: 3327; Minegishi et al., 1996, J. Exp. Med. 184: 1365; Lae et al., 1998, supra). Both forms of HEF1 were detected at a similar level in 293 cells after HEF1 transfection for 24 hrs (data not shown). However, p115HEF1 was the predominant form that associates with Smad3, and to a much lesser extent, with Smad1 and Smad2. Neither p115HEF1 nor p105HEF1 was detected in the immunoprecipitates of Smad4.
It was tested whether the observed reduction of HEF1 level by Smad3 is regulated by TGF-β and activin type I receptor activation and whether the reduction is mediated by proteasomal degradation. The Smad3-mediated reduction of HEF1 protein level was further enhanced in the presence of the overexpressed wildtype TGF-β type I receptor and wildtype activin type I receptor, as well as the constitutively active mutant TGF-β type I receptor (R4T204D) and the activated mutant activin type I receptor (R2T206D)). […]
Like other Smad family proteins, Smad3 can be divided into three subdomains: an amino-terminal MH1 domain, a central linker region and a carboxyl-terminal MH2 domain The N-terminal MH1 domain of Smad3 (Smad3N) has the ability to bind to specific DNA sequences (Massague, 1998, supra; Derynck et al., 1998, Cell 95: 737; Wrana, 2000, Cell 100: 189), whereas the C-terminal MH2 domain interacts with the TGF-β type I receptor as well as multiple transcriptional regulators (Massague, 1998, supra; Derynck, 1998, supra; Wrana, 2000, supra). […] In cells that were not treated with LLnL, p115HEF1 and smaller amount of p105HEF1 were detected in the immunoprecipitates of Smad3N, Smad3C and full length Smad3, with the strongest HEF1 signal detected in the immunoprecipitates of Smad3C. […] In fact, when LLnL stabilizes HEF1, the highest amount of HEF1 was detected in the immunoprecipitates of full length Smad3. […]

[6] = test system: calpain, cathepsin B, chymotrypsin, trypsin and papain; details: cited from earlier work
[7] = test system: biological activities of BMPs and TGF-beta; test: Inhibition of the biological activities of BMPs and TGF-beta (summary statement)
[8] = test system: SNIP-1 protein level; test: ALK3Q233D-induced degradation of SNIP-1 in transfected COS cells, Western blot; type: cell-based; details: inhibitors added 10 hours before cell lysis; ALK3Q233D transfected COS cells
Source text: The novel Smad1 interactor is a nuclear proteip (termed as Smad1 Nuclear Interactor Protein 1, SNIP-1, SEQ ID No. 3), with a carboxyterminal domain that is highly homologous to the aminoterminus of the nuclear inhibitor of protein phosphatase 1 (NIPP-1) (Wang & Lechleider, unpublished) (FIG. 31A & C). NIPP-1 (VanEynde et al., 1995) is known to be rapidly processed into smaller heat-stable intermediates, a process that may be mediated by proteasome (see Discussion in Jagiello et al., 1995). SNIP-1 is a strong interactor of Smad1, that also binds to both antizyme and HsN3 in the yeast two-hybrid assays (FIG. 311B).
Forty-eight hours after transfection, COS cells were lysed in an equal volume of lysis buffer (300 ul/plate), and the total protein concentration of each sample was measured. No major difference in protein concentration was detected among the lysates. The protein level of SNIP-1 in 100 ug of total protein lysate was determined by Western blot using anti-T7 monoclonal antibody. […] Such a decrease is dependent upon the coexpression of Smad1, DPC4 and antizyme, since replacing each of these three proteins with an unrelated protein (β galactosidase) abolishes such a decrease in ALK3Q233D transfected cells (FIG. 31D, top panel, lanes 9-14). […] The total amount of proteins in the tested lanes was normalized before loading, and equal loading was confirmed by Western blot using anti-a tubulin (FIG. 31D, bottom panel).
To determine whether the decrease in the level of SNIP-1 protein level is caused by proteasome mediated degradation, we used inhibitors of the proteasome. Proteasome inhibitors that selectively block different proteolytic activities of the proteasome are powerful tools for studying the role of proteasomes in many aspects of cell growth, differentiation and apoptosis (Hilt et al., 1993; Palomebella et al., 1994; Figueiredo-Pereira et al., 1994; Thraenckner et al., 1994; Read et al., 1995; Grimm et al., 1996, for reviews, see Coux et al., 1996). […]

[9] = test system: ischemic brain injury; details: cited from earlier work
[10] = test system: ischemic brain injury; details: cited from earlier work; remark: listed apart in the source
[11] = test system: ischemic brain injury; details: single ICV injection of 1 μg/kg at 2, 4 or 6 hour before; assessed 48 hours after injury; cited from earlier work
[12] = test system: proteasome; details: LLnL versus LLM; cited from earlier work

TGF-β
steady-state levels of p115 and p105 HEF1 [1]: started to decrease after 30 min exposure
time for pulse-labeled p105HEF1 to be reduced to basal level ([1]; TGF-β-stimulated, 30 min pulse): ≤ 60 min
p105HEF1 level ([1]; after 3 hrs of TGF-β treatment): greatly reduced
p115HEF1 level ([1]; after 3 hrs of TGF-β treatment): almost undetectable
exposure after which decrease of endogenous p115HEF1 was detected [2]: 15 min
steady-state level of p115HEF1 and p105HEF1 ([2]; after 3 hrs of TGF-β stimulation): increased
level of HEF1 mRNA, Northern blot ([2]; as early as 1 hr after treatment): dramatically increased
HEF1 mRNA [3]: induction of HEF1 mRNA

CC(=O)N[C@@H](CSC(=O)[C@]1([C@@H](O)C(C)C)NC(=O)[C@H](C)[C@@H]1O)C(=O)O [lactacystin]
EC50 ([4]; Sympathetic neuron, rat sympathetic neurons, read-out: EC50 for the inhibitory activity on OP-1 induced dendritic growth): ~100 nM
OP-1 induced dendritic growth ([4]; added later than 3 hrs after OP-1): resistance to the inhibitory effects developed after 3 hrs and are apparent after 8 hrs
OP-1 induced dendritic growth ([4]; added within 3 hrs of OP-1 exposure): fully inhibited
ability to form dendrites in the presence of OP-1 or BMP-6 ([4]; pretreatment for 4 hours): concentration-dependent decrease
axonal growth or cell survival ([4]; rat sympathetic neurons): did not affect
Smad3-induced reduction (degradation) of HEF1 protein level [5]: blocked
activity of other proteases [6]: does not inhibit
biological activities of BMPs and TGF-beta [7]: able to inhibit
ALK3Q233D induced decrease of SNIP-1 protein level [8]: reversed

CSCCC(C=O)NC(=O)C(CC(C)C)NC(=O)C(CC(C)C)NC(C)=O (stereo not drawn) [LLM] (Ac-Leu-Leu-Met-aldehyde; configuration not given here)
inhibition of OP-1 induced dendritic growth [4]: Inhibition of OP-1 induced dendritic growth was also observed
ALK3Q233D induced decrease of SNIP-1 protein level [8]: reversed

TGF-β1: prototypical member of the TGFβ family of cytokines, exogenously administered
neuroprotection ([9]; 0.5 or 50 ng ICV): no neuroprotection
CA1 pyramidal cell survival ([9]; same amount (4 ng) by ICV): 48%
pyramidal cell survival ([9]; single 4 ng intrahippocampal injection 1 h prior to TFGI, assessed 7 days after): 50%
deficits in water maze learning ability and asymmetry in somatosensory functions ([10]; 10 ng ICV, first 10 days after injury): improved
intensity of microglial activation ([10]; 10 ng, 48 hours after ischemic injury): significantly reduced
neuroprotection ([10]; 2 or 50 ng on the same schedule): did not provide significant neuroprotection
area of cortical infarction ([10]; dose response): bell-shaped dose-response effect
neuroprotection in cortex, thalamus, striatum and dentate gyrus ([10]; single ICV dose of 10 ng 2 hours after ischemic injury, assessed 5 days after): significant neuroprotection
CA1-CA4 hippocampal neurons ([10]; single ICV dose of 10 ng 2 hours after ischemic injury): not protected
decrease in ischemic area of the neocortex [11]: ≈ 10%

N-acetyl-L-Leucinyl-L-Leucinal-L-norleucinal [LLnL]
inhibition of OP-1 activity, relative concentration ([4]; LLnL versus LLM): inhibited OP-1 activity at lower concentrations than LLM
inhibition of OP-1 induced dendritic growth [4]: Inhibition of OP-1 induced dendritic growth was also observed
potency as inhibitor of proteasome activity [12]: more potent inhibitor of proteasome activity than LLM
Smad3-induced reduction (degradation) of HEF1 protein level [5]: able to block
Smad3N-mediated reduction of p115HEF1 ([5]; HEF1 co-expressed with Smad3N): blocked
biological activities of BMPs and TGF-beta [7]: able to inhibit
TGF-β induced decrease of endogenous HEF1 [2]: able to block
ALK3Q233D induced decrease of SNIP-1 protein level [8]: reversed

Cc1c2oc3c(C)ccc(C(=O)N[C@@H]4C(=O)N[C@H](C(C)C)C(=O)N5CCC[C@H]5C(=O)N(C)CC(=O)N(C)[C@@H](C(C)C)C(=O)O[C@@H]4C)c3nc-2c(C(=O)N[C@@H]2C(=O)N[C@H](C(C)C)C(=O)N3CCC[C@H]3C(=O)N(C)CC(=O)N(C)[C@@H](C(C)C)C(=O)O[C@@H]2C)c(N)c1=O [actinomycin D, reference compound] (I: T[dV]P[Sar][NMeV] / II: T[dV]P[Sar][NMeV]; ester I:1-I:C, II:1-II:C; linker I:N-II:N via Actinocin(9to1))
increase of steady-state p115HEF1 and p105HEF1 after 3 hrs of TGF-β stimulation [2]: can be inhibited
